Results on one compound are retold here after patent US8541579B2, “Substituted diketopiperazines as oxytocin antagonists” (Glaxo Group Limited, priority 2001, dated 2013).

The series deals with rats. Description: Administration to rats p.o. for 4 days, toxicological effects. In kind it is in vivo. To be noted: doses of up to 300 mg/kg p.o for 4 days. The source says: The compounds of the invention are essentially non toxic at therapeutically active doses.

As for `CC(C)C[C@@H]1C(=O)N[C@H](C2Cc3ccccc3C2)C(=O)N1[C@@H](C(=O)N(C)C)c1ccc(F)cc1F` [Example 10, (2R)-2-(2,4-difluorophenyl)-2-[(3R,6R)-3-(2,3-dihydro-1H-inden-2-yl)-6-isobutyl-2,5-dioxopiperazin-1-yl]-N,N-dimethylethanamide], the adverse toxicological effects result is listed as “no adverse toxicological effects were observed”.
